Source: US20240415914A1, “Water Dispersible Cannabinoid Compositions” (priority 2021, published 2024)

Assay: Stability of cannabinoid and Vitamin E components of Beverage 1 (AB White) stored at 8° C. and 21-25° C., LCMSMS over 570 days
Type: physicochemical
Conditions: for Stability in AB White, 8° C. (content by LCMSMS): beverage stored at 8° C.; for Stability in AB White, 21-25° C. (content by LCMSMS): beverage stored at 21-25° C.
Procedure: The LCMSMS was calibrated for 0-1000 ng/ml cannabinoids with the same resin material used in the preparation of the concentrates. At each time period, 100 ml of beverage was diluted with 10 ml of methanol and injected into the LCMSMS for analysis.

CCCCCc1cc2c(c(O)c1C(=O)O)[C@@H]1C=C(C)CC[C@H]1C(C)(C)O2 [D9 THCA, delta-9-tetrahydrocannabinolic acid]
Stability in AB White, 8° C. (content by LCMSMS) (day 0): 0.950 µg/mL
Stability in AB White, 8° C. (content by LCMSMS) (day 1): 0.956 µg/mL
Stability in AB White, 8° C. (content by LCMSMS) (day 2): 0.954 µg/mL
Stability in AB White, 8° C. (content by LCMSMS) (day 3): 0.934 µg/mL
Stability in AB White, 8° C. (content by LCMSMS) (day 5): 0.956 µg/mL
Stability in AB White, 8° C. (content by LCMSMS) (day 8): 0.949 µg/mL
Stability in AB White, 8° C. (content by LCMSMS) (day 9): 0.937 µg/mL
Stability in AB White, 8° C. (content by LCMSMS) (day 10): 0.960 µg/mL
Stability in AB White, 8° C. (content by LCMSMS) (day 11): 0.929 µg/mL
Stability in AB White, 8° C. (content by LCMSMS) (day 12): 0.942 µg/mL
Stability in AB White, 8° C. (content by LCMSMS) (day 15): 0.944 µg/mL
Stability in AB White, 8° C. (content by LCMSMS) (day 16): 0.932 µg/mL
Stability in AB White, 8° C. (content by LCMSMS) (day 17): 0.951 µg/mL
Stability in AB White, 8° C. (content by LCMSMS) (day 18): 0.950 µg/mL
Stability in AB White, 8° C. (content by LCMSMS) (day 19): 0.959 µg/mL
Stability in AB White, 8° C. (content by LCMSMS) (day 22): 0.960 µg/mL
Stability in AB White, 8° C. (content by LCMSMS) (day 23): 0.931 µg/mL
Stability in AB White, 8° C. (content by LCMSMS) (day 24): 0.926 µg/mL
Stability in AB White, 8° C. (content by LCMSMS) (day 25): 0.957 µg/mL
Stability in AB White, 8° C. (content by LCMSMS) (day 26): 0.956 µg/mL
Stability in AB White, 8° C. (content by LCMSMS) (day 29): 0.939 µg/mL
Stability in AB White, 8° C. (content by LCMSMS) (day 30): 0.955 µg/mL
Stability in AB White, 8° C. (content by LCMSMS) (day 60): 0.914 µg/mL
Stability in AB White, 8° C. (content by LCMSMS) (day 90): 0.948 µg/mL
Stability in AB White, 8° C. (content by LCMSMS) (day 120): 0.932 µg/mL
Stability in AB White, 8° C. (content by LCMSMS) (day 150): 0.952 µg/mL
Stability in AB White, 8° C. (content by LCMSMS) (day 180): 0.941 µg/mL
Stability in AB White, 8° C. (content by LCMSMS) (day 210): 0.923 µg/mL
Stability in AB White, 8° C. (content by LCMSMS) (day 240): 0.932 µg/mL
Stability in AB White, 8° C. (content by LCMSMS) (day 270): 0.933 µg/mL
Stability in AB White, 8° C. (content by LCMSMS) (day 300): 0.939 µg/mL
Stability in AB White, 8° C. (content by LCMSMS) (day 330): 0.909 µg/mL
Stability in AB White, 8° C. (content by LCMSMS) (day 360): 0.913 µg/mL
Stability in AB White, 8° C. (content by LCMSMS) (day 390): 0.923 µg/mL
Stability in AB White, 8° C. (content by LCMSMS) (day 420): 0.916 µg/mL
Stability in AB White, 8° C. (content by LCMSMS) (day 450): 0.923 µg/mL
Stability in AB White, 8° C. (content by LCMSMS) (day 480): 0.905 µg/mL
Stability in AB White, 8° C. (content by LCMSMS) (day 510): 0.873 µg/mL
Stability in AB White, 8° C. (content by LCMSMS) (day 540): 0.877 µg/mL
Stability in AB White, 8° C. (content by LCMSMS) (day 570): 0.872 µg/mL
Stability in AB White, 21-25° C. (content by LCMSMS) (day 0): 0.950 µg/mL
Stability in AB White, 21-25° C. (content by LCMSMS) (day 1): 0.960 µg/mL
Stability in AB White, 21-25° C. (content by LCMSMS) (day 2): 0.938 µg/mL
Stability in AB White, 21-25° C. (content by LCMSMS) (day 3): 0.920 µg/mL
Stability in AB White, 21-25° C. (content by LCMSMS) (day 5): 0.958 µg/mL
Stability in AB White, 21-25° C. (content by LCMSMS) (day 8): 0.937 µg/mL
Stability in AB White, 21-25° C. (content by LCMSMS) (day 9): 0.926 µg/mL
Stability in AB White, 21-25° C. (content by LCMSMS) (day 10): 0.935 µg/mL
Stability in AB White, 21-25° C. (content by LCMSMS) (day 11): 0.949 µg/mL
Stability in AB White, 21-25° C. (content by LCMSMS) (day 12): 0.935 µg/mL
Stability in AB White, 21-25° C. (content by LCMSMS) (day 15): 0.948 µg/mL
Stability in AB White, 21-25° C. (content by LCMSMS) (day 16): 0.921 µg/mL
Stability in AB White, 21-25° C. (content by LCMSMS) (day 17): 0.919 µg/mL
Stability in AB White, 21-25° C. (content by LCMSMS) (day 18): 0.928 µg/mL
Stability in AB White, 21-25° C. (content by LCMSMS) (day 19): 0.917 µg/mL
Stability in AB White, 21-25° C. (content by LCMSMS) (day 22): 0.947 µg/mL
Stability in AB White, 21-25° C. (content by LCMSMS) (day 23): 0.924 µg/mL
Stability in AB White, 21-25° C. (content by LCMSMS) (day 24): 0.927 µg/mL
Stability in AB White, 21-25° C. (content by LCMSMS) (day 25): 0.948 µg/mL
Stability in AB White, 21-25° C. (content by LCMSMS) (day 26): 0.921 µg/mL
Stability in AB White, 21-25° C. (content by LCMSMS) (day 29): 0.922 µg/mL
Stability in AB White, 21-25° C. (content by LCMSMS) (day 30): 0.934 µg/mL
Stability in AB White, 21-25° C. (content by LCMSMS) (day 60): 0.896 µg/mL
Stability in AB White, 21-25° C. (content by LCMSMS) (day 90): 0.892 µg/mL
Stability in AB White, 21-25° C. (content by LCMSMS) (day 120): 0.894 µg/mL
Stability in AB White, 21-25° C. (content by LCMSMS) (day 150): 0.934 µg/mL
Stability in AB White, 21-25° C. (content by LCMSMS) (day 180): 0.945 µg/mL
Stability in AB White, 21-25° C. (content by LCMSMS) (day 210): 0.913 µg/mL
Stability in AB White, 21-25° C. (content by LCMSMS) (day 240): 0.892 µg/mL
Stability in AB White, 21-25° C. (content by LCMSMS) (day 270): 0.905 µg/mL
Stability in AB White, 21-25° C. (content by LCMSMS) (day 300): 0.888 µg/mL
Stability in AB White, 21-25° C. (content by LCMSMS) (day 330): 0.894 µg/mL
Stability in AB White, 21-25° C. (content by LCMSMS) (day 360): 0.925 µg/mL
Stability in AB White, 21-25° C. (content by LCMSMS) (day 390): 0.907 µg/mL
Stability in AB White, 21-25° C. (content by LCMSMS) (day 420): 0.909 µg/mL
Stability in AB White, 21-25° C. (content by LCMSMS) (day 450): 0.921 µg/mL
Stability in AB White, 21-25° C. (content by LCMSMS) (day 480): 0.873 µg/mL
Stability in AB White, 21-25° C. (content by LCMSMS) (day 510): 0.903 µg/mL
Stability in AB White, 21-25° C. (content by LCMSMS) (day 540): 0.877 µg/mL
Stability in AB White, 21-25° C. (content by LCMSMS) (day 570): 0.877 µg/mL
